According to patent publication US20160303068A1, “Compositions and Methods For Treating Brain Injury and Brain Diseases” (University of Washington through its Center for …, priority 2013, published 2016):
“Also recorded” adds a separate entry of the source.

Experiments:
[1] = tested on: AD transgenic mouse models; conditions: in vivo; cited from earlier work
[2] = [3H] paclitaxel distribution in brain via intranasal administration; type: in vivo, male CD-1 mice; conditions: 1 μCi [3H] paclitaxel in 1 μl PBS to the right nares
Experimental: FIGS. 4 A and 4B are graphs showing [^3H] paclitaxel distribution via intranasal administration in male CD-1 mice, 8 weeks, after administration of 1 μCi of [^3H] paclitaxel in 1 μl PBS to the right nares;
FIGS. 4A and 4B show distribution of a taxane (paclitaxel) in the brain, when the taxane is administered intranasally. […] Thus, the intranasally administered taxane can bypass the blood-brain barrier (BBB) via the olfactory epithelium, and thereby provide therapeutic effect to a subject. The treatment methods can advantageously administer drug to the brain (e.g., an injured area of the brain) while minimizing side effects in non-target organs. The methods can have widespread applications. For example, intranasal administration of taxanes can result in decreased neuroinflammation, and can therefore be used in treatment of neuroinflammatory conditions, such as neurodegenerative diseases including Alzheimer's disease and related tauopathies, multiple sclerosis, viral infections, Parkinson's disease, as well as head trauma and mild concussions.

[3] = tested on: rodent model of traumatic brain injury; assay: MRI (T1-weighted, quantitative T2 maps) of injury volume and edema after controlled cortical impact; type: in vivo, C57BL6 mice
Experimental: (§1) Rodent subjects (C57BL6 mice, 10 wks, male, n=12) had craniotomy over the right frontoparietal cortex of 5 mm, plus mild controlled cortical impact (CCI) surgery using a pneumatic impactor (AmScien Instruments, Richmond, Va.) at 6 m/s strike velocity, 1 mm depth of penetration, and 150 ms contact time, under isoflurane anesthesia. Immediately following CCI, 200 ug/kg paclitaxel (n=6) or vehicle (n=6) was applied to the brain injury site. Sham surgery (craniotomy, but no CCI) was performed on controls (n=3).
(§2) At 2 days post-surgery, gait assessment of the subjects was conducted using CatWalk automated gait analysis (Noldus Information Tech, The Netherlands) followed by high-tesla magnetic resonance imaging (14T MR Avance III Ultrashield, Bruker BioSpin, Billerica, Mass.). T1-weighted and quantitative T2 maps were obtained: MDEFT (3D modified driven equilibrium Fourier transform), […]: 12°, TR (repetition time): 5000 ms, TE (echo time): 1.9ms, resolution 0.140×0.140×0.25 mm^3, 64 slices; T2 map: TR=2000 ms, 16 echoes, spacing:6.7 ms, TE1: 6.7 ms, TE 2:13.4 ms, resolution 0.12×0.12×1.0 mm^3, 15 slices. Manual volume of interest (VOI) analysis of injury volume and volume of edema related to injury was performed.

[4] = tested on: rodent model of traumatic brain injury; assay: Macromolecular proton fraction (MPF) imaging of myelin density adjacent to injury after CCI; type: in vivo, C57BL6 mice
Experimental: as §1
Macromolecular proton fraction (MPF) imaging is a quantitative magnetic resonance technique that measures the magnetization transfer between protons bound to water and protons bound to macromolecules. MPF imaging was performed to evaluate myelin degradation adjacent to injury. […] Mean myelin density was calculated for a region of interest (circular region having a diameter of […]) that was larger than the actual injury (1.5 mm).

[5] = tested on: rodent model of traumatic brain injury; assay: CatWalk automated gait analysis after CCI; type: in vivo, C57BL6 mice
Experimental: as §1, §2

[6] = tested on: rodent model of traumatic brain injury; assay: Fractional anisotropy imaging of external capsule integrity after CCI; type: in vivo, C57BL6 mice; conditions: following CCI; paclitaxel not intranasally administered
Experimental: as §1
The MPF results were corroborated using cross-relaxation imaging. Cross-relaxation imaging (CRI) is a quantitative magnetic resonance technique that measures the kinetic parameters of magnetization transfer between protons bound to water and protons bound to macromolecules. Here, in vivo, four-parameter CRI of normal rat brains (n=5) at 3.0 T was first directly compared to histology. The bound pool fraction, f, was strongly associated with myelin density (Pearson's r=0.99, p<0.001). The correlation persisted in separate analyses of gray matter (GM; r=0.89, p=0.046) and white matter (WM; r=0.97, p=0.029). The CRI results validated the MPF results, in that the taxane helped to preserve myelin density around the injury. Fractional anisotropy imaging was carried out to evaluate the integrity of underlying external capsule. […]

3×Tg-AD mice = assay: Manganese-enhanced MRI (MEMRI) of axonal transport rates in the olfactory tract, 3×Tg-AD mice; type: in vivo; conditions: intranasal 0.6 mg/kg, vs saline or young wild-type controls
Excerpt: MRI: Mice are anesthetized with isoflurane and scanned on an ultra-high resolution 14T MRI (Avance III, Bruker BioSpin Corp, Billerica, Mass.). Dynamic manganese enhanced magnetic resonance imaging (dyMEMRI): Mice are anesthetized with isoflurane and administered a unilateral injection of Sul of 1 M MnCl2 intranasally (with occlusion to block septal window). Parameters for magnetization prepared rapid gradient echo (MPRAGE) (TR/TE=11/5.3 ms; Ti=1000 ms; FA=9 deg acquired matrix 108×108 mm over 55 slices, voxel 0.2×0.2×0.4 mm3 interpolated to 0.1×0.1×0.2 mm3). […] MicroPET: Metabolic brain activity is assessed using FDG-PET performed under isoflurane anesthesia with 30 min uptake after 250 μCi intraperitoneal injection of FDG. […]
The effect of intra-nasal treatment of taxanes on the development of neurodegenerative pathology in a model of Alzheimer's disease was also studied. […] Treatment effectiveness was assessed with the same outcome measures as described in Example 1.
(§3) Intranasal paclitaxel (Hospira, Inc., Lake Forest, Ill.) was administered to 3×Tg-AD mice (0.6 mg/kg in 0.9 percent saline, […] per nostril). […] Dynamic T1-weighted MR imaging detected signal enhancement and post-processing algorithms calculate a relative rate of transport. […]

wild-type mice = assay: Manganese-enhanced MRI (MEMRI) of axonal transport rates, wild-type mice; type: in vivo; conditions: wild-type mice treated with paclitaxel vs young wild-type controls, p≦0.01
Excerpt: MRI: Mice are anesthetized with isoflurane and scanned on an ultra-high resolution 14T MRI (Avance III, Bruker BioSpin Corp, Billerica, Mass.). Dynamic manganese enhanced magnetic resonance imaging (dyMEMRI): Mice are anesthetized with isoflurane and administered a unilateral injection of Sul of 1 M MnCl2 intranasally (with occlusion to block septal window). Parameters for magnetization prepared rapid gradient echo (MPRAGE) (TR/TE=11/5.3 ms; Ti=1000 ms; FA=9 deg acquired matrix 108×108 mm over 55 slices, voxel 0.2×0.2×0.4 mm3 interpolated to 0.1×0.1×0.2 mm3). Mice are scanned dynamically for 45 min (early uptake) at 1 hour post administration, allowed to recover and scanned again at 4-6 hours post (late transport) for 60 min. DTI acquired as 4 shot echo planar image (EPI); TR/TE=4000/18 ms, 30 diffusion directions, multislice 2D, b=1000 s/mm2, FOV 19×19 mm, matrix size=128×128 with slice thickness=0.5 mm over 9 min. MicroPET: Metabolic brain activity is assessed using FDG-PET performed under isoflurane anesthesia with 30 min uptake after 250 μCi intraperitoneal injection of FDG. […]
as §3

[7] = tested on: glia fibrillary acidic protein (GFAP) expression; assay: GFAP immunostain of CA1 region of hippocampus (reactive astrocytes); type: in vivo, 3×Tg-AD mice; conditions: intranasal 0.6 mg/kg at 2 week intervals for 3 months; vs saline
Experimental: Histology and Westerns. All confocal microscopy and immunohistochemistry are performed on perfusion fixed tissue prepared from animals that, immediately after euthanasia with pentobaritol (100 mg/kg), are perfused with saline followed by 4 percent paraformaldehyde/saline. For biochemical experiments (Western blots, etc.) other animals are perfused after death with saline and then the brains are rapidly dissected and flash frozen in liquid N2. Brain sections corresponding to the olfactory bulb are stained for Fluoro-Jade (1:1000, Histo-Chem Inc., AR, USA) as a marker of degenerating neurons and can be used to assess if 9 months of paclitaxel intranasal treatment may be neurotoxic. Glial fibrillary acidic protein (GFAP, 1:1500, Dako, Carpinteria, Calif.), an astroglial marker, and ionized calcium-binding adapter molecule 1 (Iba-1) (1:1000 Dako, Carpinteria, Calif.), a marker of microglial activation are processed using Avidin-Biotin procedure, which uses biotinylated secondary antibodies, avidin coupled to horse radish peroxidase (HRP) and reacted with 3,3′diaminobenzidine.
The application of paclitaxel to 3×Tg-AD mice (0.6 mg/kg at 2 week intervals for 3 months, intranasal administration) was investigated. It has been shown that microglia and astrocytes respond acutely to brain injury. […]

spinal cord injury = conditions: after spinal cord injury; cited from earlier work

Compound: C/C1=C/C[C@@H](/C(C)=C/c2csc(C)n2)OC(=O)C[C@H](O)C(C)(C)C(=O)[C@H](C)[C@@H](O)[C@@H](C)CCC1 [epothilone D]
- cognitive performance [1]: improve cognitive performance
- tau pathology [1]: reduce associated tau pathology

Compound: CC(=O)O[C@H]1C(=O)[C@@]2(C)[C@H]([C@H](OC(=O)c3ccccc3)[C@]3(O)C[C@H](OC(=O)[C@H](O)[C@@H](NC(=O)c4ccccc4)c4ccccc4)C(C)=C1C3(C)C)[C@]1(OC(C)=O)CO[C@@H]1C[C@@H]2O [paclitaxel]
- brain regions taking up taxane (FIG. 4A) [2]: taken up by the olfactory bulbs, the striatum, the hippocampus, the frontal cortex, the hypothalamus, and the cerebellum
- regional brain uptake level (second distribution graph) [2]: high striatum and hypothalamus uptake
- injury volume ([3]; 200 ug/kg applied to brain injury site immediately after CCI, MRI 2 days post-surgery, vs vehicle 9.96±2.3, p≦0.05): 7.94±1.5 mm^3
- hyperintense voxels (edema) on quantitative T2 maps ([3]; 200 ug/kg applied to brain injury site, 2 days post-surgery, vs vehicle 11.92±3.0, p≦0.05): 8.86±2.2 mm^3
- reduction of hyperintense voxels (edema) ([3]; 200 ug/kg applied to brain injury site, vs vehicle): 26%
- reduction in injury volume ([3]; 200 ug/kg applied to brain injury site, vs vehicle, T2 and T1 images): 20%
- injury volume on T1-weighted MRI (in words) ([3]; paclitaxel versus saline treatment): indicating reduced injury
- MPF bound percent, injury side ([4]; mn±sd, vs vehicle 8.95±0.3, p≦0.05): 9.45±0.4
- MPF bound percent, contralateral cortical area ([4]; vs vehicle): No difference
- increase of MPF bound percent on the injury side ([4]; vs vehicle): 6.6%
- maximum print area ([5]; 2 days post-surgery, vs vehicle 0.29±0.08, p≦0.05): 0.38±0.09 cm^2
- mean intensity ([5]; 2 days post-surgery, vs vehicle 66.38±5.52, p≦0.05): 79.45±14.26
- swing, decreased ([5]; right front (RF) and left hind (LF) only, vs vehicle): 12%
- print length, increase ([5]; right hind (RH) only, vs vehicle): 12%
- gait parameters (in words) ([5]; short term, 8 days, paclitaxel over saline treated subjects): Improved gait parameters
- maximum print area, increased ([5]; vs vehicle): 22-52%
- mean intensity, increased ([5]; vs vehicle): 19-22%
- print area, increased ([5]; vs vehicle): 20-45%
- print width, increased ([5]; vs vehicle): 5-17%
- underlying white matter integrity (FA values in external capsule) [6]: No significant improvement
- axonal transport rates (3×Tg-AD mice): increased transport significantly; also recorded: Improved axonal transport rates; also recorded: relatively increased
- axonal transport rates (wild-type mice): relatively increased
- GFAP expression / reactive astrocytes in CA1 region of hippocampus [7]: decreased evidence of activated astrocytes; also recorded: markedly reduced reactive astrocytes; also recorded: reduced GFAP expression levels; also recorded: showing reduced
- axon regeneration (spinal cord injury): facilitate axon regeneration
